Measurements: patent publication US20250154611A1, “SYSTEMS AND METHODS TO DETECT STEM CELL STRESS AND USES THEREOF” (Wayne State University, priority 2014, published 2025)

Tests used:
p38MAPK = p38MAPK (Mus musculus, UniProt P47811); assay: phospho-p38 western blot in mESCs under 200 mM sorbitol; assay type: cell-based; settings: 200 mM, persisted throughout 1 hr
Procedure: FIG. 14. […] Blots are representative of triplicate experiments. Phospho-proteins and their loading controls are grouped between black lines.
FIG. 15. […] Blots are representative of triplicate experiments.
Hyperosmotic activation of signaling enzymes. […] Zhong, 2010; Xie, 2011. […] To determine the kinetics of activation of these five kinases in the described system, mESCs were treated with 200 mM sorbitol for 1 hr. Expression levels of the activated (i.e., phosphorylated) enzymes were assayed by western blot analysis (FIG. 14), including phospho-p38MAPK, phospho-JNK, phospho-MEK1/2, and phospho-AKT (the downstream effector of PI3K signaling).
Efficacy of enzyme inhibitors.

mESCs = assay: RT-qPCR of lineage markers Dab2, Lrp2, Fgf5 in mESC monolayer; assay type: cell-based, mouse; settings: 24 hr
From the text: FIGS. 16A-16E. Hyperosmotic stress in mESCs impacts transcription factor expression at protein and mRNA levels. (FIG. 16A) The inner cell mass (ICM) of the blastocyst coexpresses Oct4/Rex1/Nanog in pluripotent cells at E3.5. After E3.5 a Rex1 subpopulation delaminates from the ICM and expresses primitive endoderm (PrEndo) marker, Lrp2, at E3.5 and extraembryonic endoderm (ExEndo) marker, Dab2, at E4.5. At E4.75, Rex1 decreases in the remaining cells of the ICM and, by E5.5, fibroblast growth factor (FGF)5 is expressed in embryonic ectoderm (EmEcto). […] (FIG. 16C) Total RNA was isolated and subjected to reverse transcription to form complementary DNA (cDNA). Real-time quantitative PCR (RTqPCR) was performed with Oct4, Nanog, and Rex1 primers. Histograms represent relative fold change in mRNA expression using the ddCt method. (FIG. 16D) mESCs in monolayer were incubated±sorbitol and ±LIF for 24 hr. Dab2, Lrp2, and Fgf5 mRNA transcript levels were examined by RT-qPCR. […] Error flags are the standard error of the mean (n=3). “a” indicates significant difference for sorbitol +LIF compared with LIF− at 24 hr. […]
RT-qPCR analysis. mESCs were trypsinized and harvested for RT-Qpcr analysis using a 7500 Fast Real Time PCR System (Applied Biosystems). […] RNA content was measured using ND-1000 Spectrophotometer (NanoDrop and ThermoScientific, Wilmington, DE). Complementary DNA (cDNA) was synthesized from 50 to 100 ng of total RNA using QuantiTect Reverse Transcription Kit (Qiagen) according to the manufacturer's instructions, and diluted 1:5. […]
Primer pairs were checked for specificity using BLAST analysis and were checked by both agarose gel electrophoresis and thermal dissociation curves to ensure amplification of a single product, and to rule out formation of primer dimers during the RT-qPCR. […] The expression of the target genes was quantified against that of two internal reference genes, glyceraldehyde-3-phosphate dehydrogenase (GAPDH) and 18s ribosomal RNA subunit (18s rRNA). […] Fold change was determined using the ddCt method. […]

[1] = system: Rex1-RFP ESCs, Oct4-GFP ESCs; assay: Plate reader fluorescence of Rex1-RFP and Oct4-GFP reporter ESCs; assay type: cell-based, mouse; settings: 3 days
Procedure: FIGS. 23A and 23B. Stress induces loss of Rex1-RFP but not Oct4-GFP after days of 200 mM sorbitol. Viable pluripotency reporter Rex1-RFP ESCs (FIG. 23A) or Oct4-GFP ESCs (FIG. 23B) were cultured in […] plates to 30% confluence. Cells were then treated with 200 mM of sorbitol as an osmotic stress for 3 days. Fluorescence was determined from live ESCs using a plate reader from 200 mM sorbitol treated cells was normalized with the non-sorbitol treated control cells. Four independent experiments were carried out and plotted here.
FIG. 24. Viable Rex1 promoter reporter responds with stress treatment in a dose-dependent manner in flow cytometry assay. mESCs expressing Rex1 promoter reporter were cultured in 12-well plates till 30% confluent. Cells were then treated with 200-300 mM of sorbitol in 25 mM increments for 3 days. After trypsinization cell suspensions were assayed by flow cytometry.
mESC culture and stimulation. […] Osmolality of ESC media with and without added 200 mM sorbitol was determined as in Example 2.
Fluorescence determination by plate reader of pluripotency reporters. mESCs that stably express Oct4-copGFP and/or Rex1-mApple promoter reporters were plated on 96-well plates at a starting confluence of 5%. Four identical plates were made for the time course study. Cells were grown for 24 hr in incubator till 10% confluence was reached; an addition of stimuli was designated time zero. The cells were stressed for a time period selected from 1, 2, or 3 days. At each time point, the medium was removed and the cells were rinsed with D-PBS. At 50 μl/well, ESCs were measured for fluorescence using the Synergy H1 microplate reader (BioTek, Winooski, VT). The excitation and detection wavelengths for Oct4-copGFP were 485 nm and 528 nm, respectively. The excitation and detection wavelengths for Rex1-mApple were 568 nm and 611 nm, respectively. After live-cell reading, the cells were lysed with 50 μL of lysis buffer (1% NP-40, 0.5% TX-100, 100 mM NaCl, 2 mM EDTA, 50 mM Tris-HCl, and pH 7.5) and measured for fluorescence with the same parameters above. After fluorescence determination, the cell lysates were further measured for total protein concentrations by adding 100 μl of Pierce BCA protein assay reagent (Thermo Scientific Inc.) following the manufacturer's instructions. Finally, the fluorescence readings from either live-cells or lysates were normalized to total protein concentration readings, in which higher readings represent higher pluripotency of the cells.

[2] = 200 mM +LIF, vs time-matched +LIF and -LIF controls

Chain of p38MAPK (P47811 whole entry): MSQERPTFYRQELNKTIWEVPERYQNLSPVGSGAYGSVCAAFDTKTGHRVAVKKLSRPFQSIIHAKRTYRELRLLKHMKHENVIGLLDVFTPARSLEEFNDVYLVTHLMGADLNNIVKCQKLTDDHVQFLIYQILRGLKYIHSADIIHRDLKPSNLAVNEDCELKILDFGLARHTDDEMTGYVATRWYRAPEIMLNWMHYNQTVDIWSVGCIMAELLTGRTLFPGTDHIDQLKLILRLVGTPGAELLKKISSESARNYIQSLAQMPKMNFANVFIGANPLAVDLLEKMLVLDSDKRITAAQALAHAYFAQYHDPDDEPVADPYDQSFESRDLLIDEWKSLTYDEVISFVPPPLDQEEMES

OC[C@@H](O)[C@@H](O)[C@H](O)[C@@H](O)CO [sorbitol]
time at which activated p38MAPK was first detected (p38MAPK): 10 min | Dab2 mRNA expression (mESCs; [2]): significantly higher | Lrp2 mRNA expression (mESCs; [2]): significantly higher | upregulation of EmEcto marker Fgf5 mRNA (mESCs; 200 mM): suppressed | Rex1-RFP fluorescence ([1]; 200 mM, LIF present): significant loss | decrease in Rex1-RFP activity ([1]; 200 mM, LIF present): 20% | Oct4-GFP fluorescence ([1]; 200 mM, vs non-sorbitol control): not significantly different | Rex1-RFP fluorescence ([1]; all doses 200-300 mM in 25 mM increments): significant decrease
